In PubChem BioAssay AID1963840 (Molecular Pharmacology Branch, DTP, NCI, 2024):

Test system: 695427-040-R-J1-PDC complex spheroid viability
Assay: Anticancer human tumor 695427-040-R-J1-PDC patient-derived colon adenocarcinoma cell line growth inhibition [POLQ]
Settings: for IC50: curve of first compound; for viability, T/C: stronger effect = lower value; active = viability on the fitted dose curve at most 10% of control; inactive = the rest
In short: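 Three-cell-type spheroids modelling solid tumor plus stroma served as the readout system; POL inhibitors were tested individually and in combination, concentration ranges set by clinical Cmax where known.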

[1] = second compound 0.0316 µM, first compound 0.0316 µM
[2] = second compound 0.0316 µM, first compound 0.1 µM
[3] = second compound 0.0316 µM, first compound 0.316 µM
[4] = second compound 0.0316 µM, first compound 1 µM
[5] = second compound 0.1 µM, first compound 0.0316 µM
[6] = second compound 0.1 µM, first compound 0.1 µM
[7] = second compound 0.1 µM, first compound 0.316 µM
[8] = second compound 0.1 µM, first compound 1 µM
[9] = second compound 0.316 µM, first compound 0.0316 µM
[10] = second compound 0.316 µM, first compound 0.1 µM
[11] = second compound 0.316 µM, first compound 0.316 µM
[12] = second compound 0.316 µM, first compound 1 µM
[13] = second compound 1 µM, first compound 0.0316 µM
[14] = second compound 1 µM, first compound 0.1 µM
[15] = second compound 1 µM, first compound 0.316 µM
[16] = second compound 1 µM, first compound 1 µM
[17] = second compound 3.16 µM, first compound 0.0316 µM
[18] = second compound 3.16 µM, first compound 0.1 µM
[19] = second compound 3.16 µM, first compound 0.316 µM
[20] = second compound 3.16 µM, first compound 1 µM
[21] = second compound 10 µM, first compound 0.0316 µM
[22] = second compound 10 µM, first compound 0.1 µM
[23] = second compound 10 µM, first compound 0.316 µM
[24] = second compound 10 µM, first compound 1 µM
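Note: spheroids exposed to compounds for seven days.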
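Throughout, for viability, T/C: 100% = DMSO vehicle control viability.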

COc1cccc(OCCCN)c1-c1cc(Nc2cnc(C#N)cn2)n[nH]1 + Cc1cccc(N(C)C(=O)C2C(O)CCN2c2nc(C)cc(C(F)(F)F)c2C#N)c1
inactive: viability, T/C (second compound 0.0316 µM, first compound 0.00316 µM) 95.4% | viability, T/C (second compound 0.0316 µM, first compound 0.01 µM) 107% | viability, T/C [1] 96% | viability, T/C [2] 82.5% | viability, T/C [3] 70.5% | viability, T/C [4] 51% | viability, T/C (second compound 0.1 µM, first compound 0.00316 µM) 109% | viability, T/C (second compound 0.1 µM, first compound 0.01 µM) 95.7% | viability, T/C [5] 88.3% | viability, T/C [6] 80.1% | viability, T/C [7] 71.3% | viability, T/C [8] 48.3% | viability, T/C (second compound 0.316 µM, first compound 0.00316 µM) 105% | viability, T/C (second compound 0.316 µM, first compound 0.01 µM) 97.5% | viability, T/C [9] 87% | viability, T/C [10] 77% | viability, T/C [11] 67.8% | viability, T/C [12] 52.5% | viability, T/C (second compound 1 µM, first compound 0.00316 µM) 105% | viability, T/C (second compound 1 µM, first compound 0.01 µM) 95.3% | viability, T/C [13] 91.6% | viability, T/C [14] 75% | viability, T/C [15] 70.4% | viability, T/C [16] 51.8% | viability, T/C (second compound 3.16 µM, first compound 0.00316 µM) 100% | viability, T/C (second compound 3.16 µM, first compound 0.01 µM) 87.8% | viability, T/C [17] 86.5% | viability, T/C [18] 82% | viability, T/C [19] 69.7% | viability, T/C [20] 55.3% | viability, T/C (second compound 10 µM, first compound 0.00316 µM) 85.9% | viability, T/C (second compound 10 µM, first compound 0.01 µM) 89.1% | viability, T/C [21] 75.8% | viability, T/C [22] 63.7% | viability, T/C [23] 48.8% | viability, T/C [24] 43.5%
295 nM: IC50 (second compound 10 µM)
> 1000 nM: IC50 (second compound 0.0316 µM) | IC50 (second compound 0.1 µM) | IC50 (second compound 0.316 µM) | IC50 (second compound 1 µM) | IC50 (second compound 3.16 µM)

O=C(c1cc(Cc2n[nH]c(=O)c3ccccc23)ccc1F)N1CCN(C(=O)C2CC2)CC1 + Cc1cccc(N(C)C(=O)C2C(O)CCN2c2nc(C)cc(C(F)(F)F)c2C#N)c1
inactive: viability, T/C [1] 107% | viability, T/C [2] 98.3% | viability, T/C [3] 101% | viability, T/C [4] 103% | viability, T/C (second compound 0.0316 µM, first compound 3.16 µM) 104% | viability, T/C (second compound 0.0316 µM, first compound 10 µM) 93.9% | viability, T/C [5] 111% | viability, T/C [6] 101% | viability, T/C [7] 97.9% | viability, T/C [8] 100% | viability, T/C (second compound 0.1 µM, first compound 3.16 µM) 113% | viability, T/C (second compound 0.1 µM, first compound 10 µM) 95.3% | viability, T/C [9] 109% | viability, T/C [10] 101% | viability, T/C [11] 99% | viability, T/C [12] 93.1% | viability, T/C (second compound 0.316 µM, first compound 3.16 µM) 98.4% | viability, T/C (second compound 0.316 µM, first compound 10 µM) 96.9% | viability, T/C [13] 98.5% | viability, T/C [14] 94.5% | viability, T/C [15] 97.6% | viability, T/C [16] 92.8% | viability, T/C (second compound 1 µM, first compound 3.16 µM) 101% | viability, T/C (second compound 1 µM, first compound 10 µM) 91.2% | viability, T/C [17] 103% | viability, T/C [18] 94% | viability, T/C [19] 102% | viability, T/C [20] 91.4% | viability, T/C (second compound 3.16 µM, first compound 3.16 µM) 103% | viability, T/C (second compound 3.16 µM, first compound 10 µM) 103% | viability, T/C [21] 89.4% | viability, T/C [22] 88% | viability, T/C [23] 97.9% | viability, T/C [24] 90.4% | viability, T/C (second compound 10 µM, first compound 3.16 µM) 92.3% | viability, T/C (second compound 10 µM, first compound 10 µM) 78.9%
> 10000 nM: IC50 (second compound 0.0316 µM) | IC50 (second compound 0.1 µM) | IC50 (second compound 0.316 µM) | IC50 (second compound 1 µM) | IC50 (second compound 3.16 µM) | IC50 (second compound 10 µM)
